Reference: EP4653444A1, “FUSED TRICYCLIC COMPOUND AS KINASE INHIBITOR” (Hangzhou Innogate Pharma Co., Ltd., priority 2023, dated 2024)
pIC50: −log10 of the molar value. Like-named read-outs stand apart in the source and are kept apart here.

Tests used:
[1] = Pharmacokinetic study in rats; details: rat, plasma, po, 3 mg/kg
FAK kinase [2] = biological target: T1, FAK kinase (Homo sapiens, UniProt Q05397); test: FAK kinase activity inhibition assay, method A (HTRF); format: biochemical; details: Table 2; HTRF; ATP 10 µM; read-out: FAK (method A) (IC50)
Description: (§1) The HTRF method was used to evaluate the inhibitory activity of the compounds against FAK kinase. […]. The reaction conditions were: FAK kinase at 0.1 ng/µL; ATP 10 µM; substrate concentration 1 µM. Compounds were serially diluted in DMSO and shaken on a shaker for 20 minutes. Prepare 2× kinase using 1× reaction buffer. Transfer 25 nL compound to a 384-well plate using Echo 655. Add 2.5 µL kinase per well. Seal the plate with sealing film, centrifuge at 1000 rpm for 60 seconds, and incubate at 25°C for 12 hours. Prepare 2× ATP/substrate mix using 1× enzyme reaction buffer and add 2.5 µL 2× ATP/substrate mix per well. Seal the plate with sealing film, centrifuge at 1000 rpm for 60 seconds, and incubate at 25°C for 50 minutes. Prepare 2×XL665 & antibody solution using HTRF detection buffer, and add 5 µL per well. Incubate at 25°C for 60 minutes. Read fluorescence at 620 nm (Cryptate) and 665 nm (XL665). Calculate the ratio per well (Ratio_665/620 nm). % Inhibition = 100% - [(Compound Ratio - Positive Control Ratio)/ (Negative Control Ratio - Positive Control Ratio)] × 100%. IC50 values (half-maximal inhibitory concentration) were calculated by nonlinear regression using GraphPad Prism 7.0. Y = Bottom + (Top - Bottom)/ (1 + 10^ ((LogIC50 - X) × Hill Slope)), where X is the log of compound concentration and Y is the % inhibition.

FAK kinase [3] = biological target: T1, FAK kinase; test: FAK kinase activity inhibition assay, method A (HTRF) and method B (Lantha screen); format: biochemical
Description: as §1
The Lantha screen assay was used to evaluate the FAK kinase inhibitory activity. Compounds were dissolved in 100% DMSO at 10 mM stock concentration. Prepare 1× kinase buffer (25 mM HEPES, pH 7.5, 0.01 mM Triton, 0.5 mM EGTA, 0.01% Brij-35). Dilute compounds in a gradient, and transfer 5 µL compound into the reaction plate. Prepare 2× kinase solution with 1× Kinase buffer. Add 5 µL kinase solution to compound and positive control wells, and 5 µL 1× Kinase buffer to negative control wells. Mix reaction plate by shaking. Prepare 4× ATP/Fluorescein-polyGT substrate mix with 1× Kinase buffer. Add 2.5 µL substrate solution to initiate the reaction. Shake and incubate at room temperature for 30 minutes. Prepare 2× detection reagent (2 nM antibody, 10 mM EDTA) and add 10 µL per well to stop the reaction. Briefly centrifuge, mix, and incubate for 60 minutes. Read fluorescence at 340 nm excitation and 520 nm/495 nm emission using EnVision. Collect data and calculate 520 nm/495 nm ratio. Calculate the inhibition percentage using the formula: % Inhibition = (Max - Sample Ratio)/(Max - Min) × 100, where min is the mean of negative control wells (no enzyme activity), and max is the mean of positive control wells (DMSO-inhibited conversion rate).Use XLFit Excel add-in version 5.4.0.8 to determine the IC50 values of each compound against the enzyme activity: Y = Bottom + (Top - Bottom)/(1 + (IC50/X)^HillSlope).

TNK1 kinase = biological target: T2, TNK1 kinase (Homo sapiens, UniProt Q13470); test: TNK1 kinase activity inhibition assay (ADP-Glo); format: biochemical
T2 sequence (Q13470 1-666): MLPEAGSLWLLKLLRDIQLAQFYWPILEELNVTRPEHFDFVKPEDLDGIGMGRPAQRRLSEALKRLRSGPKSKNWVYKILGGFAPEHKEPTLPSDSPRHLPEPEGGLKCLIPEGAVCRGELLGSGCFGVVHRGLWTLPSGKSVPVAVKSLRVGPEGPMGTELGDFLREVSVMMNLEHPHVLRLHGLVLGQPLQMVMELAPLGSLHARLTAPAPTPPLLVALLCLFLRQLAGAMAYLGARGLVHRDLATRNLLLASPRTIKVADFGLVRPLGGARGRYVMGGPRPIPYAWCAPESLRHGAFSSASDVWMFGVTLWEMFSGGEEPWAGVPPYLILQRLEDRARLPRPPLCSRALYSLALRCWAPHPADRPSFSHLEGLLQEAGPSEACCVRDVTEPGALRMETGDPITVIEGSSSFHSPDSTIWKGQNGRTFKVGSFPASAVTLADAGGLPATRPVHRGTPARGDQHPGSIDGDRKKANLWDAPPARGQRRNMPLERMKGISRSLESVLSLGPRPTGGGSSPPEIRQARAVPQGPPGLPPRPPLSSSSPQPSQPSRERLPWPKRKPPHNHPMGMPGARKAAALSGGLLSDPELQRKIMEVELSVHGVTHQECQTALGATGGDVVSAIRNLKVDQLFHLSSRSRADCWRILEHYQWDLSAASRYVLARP
Description: Measure compound inhibitory activity against TNK1 kinase using ADP-Glo Assay. 1× kinase reaction buffer was prepared (working concentrations: HEPES 50 mM, MgCl2 10 mM, Brij35 0.01%, EGTA 1 mM, DTT 2 mM). 2× kinase and 4× substrate buffers were prepared with the following working concentrations: For TNK1 kinase: kinase solution at 5 nM; substrate mixture containing ATP at 45 µM and MBP substrate at 0.1 mg/ mL. For ULK2 kinase: kinase solution at 0.15 nM; substrate mixture containing ATP at 6 µM and MBP substrate at 0.1 mg/mL. Compounds were serially diluted in DMSO and shaken on an orbital shaker for 20 minutes. 2× kinase solution was prepared using 1× kinase reaction buffer. 20 nL of compound solution was transferred to a 384-well plate. 2 µL of kinase solution was added to each well of the reaction plate. The plate was sealed with adhesive film, centrifuged at 1000 rpm for 60 seconds, and incubated at 25°C for 10 minutes. 2× ATP&MBP mixture was prepared using 1× kinase reaction buffer. 2 µL of 2× ATP&substrate mixture was added to the reaction plate. The plate was sealed with adhesive film, centrifuged at 1000 rpm for 60 seconds, and incubated at 25°C for 60 minutes. 4 µL of ADP-Glo reagent was transferred to the 384-well reaction plate, centrifuged at 1000 rpm for 1 minute, and incubated at 25°C for 40 minutes. 8 µL of Detection solution was transferred to the 384-well reaction plate, centrifuged at 1000 rpm for 1 minute, and incubated at 25°C for 40 minutes. Relative luminescence units (RLU) were measured using a BMG microplate reader, with signal intensity representing kinase activity level. The inhibition percentage was calculated as follows: % inhibition = 100% - [(Compound RLU - Positive Control RLU)/(Negative Control RLU - Positive Control RLU)] × 100%. The IC50 values (half-maximal inhibitory concentration) of compounds were determined by fitting the data to the following nonlinear regression equation using GraphPad Prism 7.0 software: Y = Bottom + (Top - Bottom)/(1 + 10^((LogIC50 - X) × Hill Slope)), where: X = log(compound concentration), Y = % inhibition. Table1: Inhibitory activity of compounds against ULK (IC50, nM)

[4] = Table 4, read-out: FAK(method A and method B) (IC50)

T1 sequence (Q05397 whole entry): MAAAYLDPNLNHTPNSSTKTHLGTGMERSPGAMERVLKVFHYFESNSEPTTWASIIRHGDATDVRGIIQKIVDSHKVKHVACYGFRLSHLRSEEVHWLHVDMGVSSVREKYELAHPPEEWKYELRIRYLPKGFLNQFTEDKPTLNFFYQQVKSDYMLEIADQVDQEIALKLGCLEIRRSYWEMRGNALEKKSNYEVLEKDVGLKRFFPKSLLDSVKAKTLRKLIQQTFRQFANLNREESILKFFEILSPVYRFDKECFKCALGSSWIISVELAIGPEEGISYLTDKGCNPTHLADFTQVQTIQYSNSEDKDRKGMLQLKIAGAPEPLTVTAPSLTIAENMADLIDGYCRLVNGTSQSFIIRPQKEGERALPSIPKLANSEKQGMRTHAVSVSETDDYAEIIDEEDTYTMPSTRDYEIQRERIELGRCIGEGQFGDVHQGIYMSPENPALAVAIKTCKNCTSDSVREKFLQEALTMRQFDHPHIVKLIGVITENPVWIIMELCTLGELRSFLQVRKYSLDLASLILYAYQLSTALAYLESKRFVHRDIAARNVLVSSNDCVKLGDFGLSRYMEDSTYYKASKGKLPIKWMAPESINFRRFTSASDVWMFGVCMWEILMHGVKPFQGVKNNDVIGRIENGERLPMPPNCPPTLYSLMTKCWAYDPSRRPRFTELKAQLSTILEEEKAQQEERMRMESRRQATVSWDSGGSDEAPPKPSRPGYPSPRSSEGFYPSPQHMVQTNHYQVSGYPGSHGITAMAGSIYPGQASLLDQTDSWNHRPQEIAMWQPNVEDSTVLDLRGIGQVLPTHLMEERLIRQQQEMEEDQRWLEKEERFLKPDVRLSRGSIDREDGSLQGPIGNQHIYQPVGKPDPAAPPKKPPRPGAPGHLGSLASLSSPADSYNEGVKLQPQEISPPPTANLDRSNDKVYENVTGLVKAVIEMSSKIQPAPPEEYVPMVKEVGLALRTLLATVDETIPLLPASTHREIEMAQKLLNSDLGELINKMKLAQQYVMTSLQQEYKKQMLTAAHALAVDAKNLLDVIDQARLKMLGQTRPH

CCc1cc2c(cc1Nc1ncc(C(F)(F)F)c(NCCCN3CCOCCC3=O)n1)OC[C@@H]1CN(C3CCN(C)CC3)CCN21 [Compound A2S]
AUC(0-t) at 24 h [1]: 98 ng·h/mL | Cmax [1]: 11.8 ng/mL | Tmax [1]: 1.17 h | half-life [1]: 7.05 h

COc1cc2c(cc1Nc1ncc(C(F)(F)F)c(CCc3ccccc3CC(N)=O)n1)OC[C@H]1CN(C)CCN21 [Compound B1R]
AUC(0-t) at 24 h [1]: 2330 ng·h/mL | Cmax [1]: 387 ng/mL | Tmax [1]: 2.7 h | half-life [1]: 2.9 h | pIC50 (FAK kinase [2]): > 9.30

COc1cc2c(cc1Nc1ncc(C(F)(F)F)c(CCc3ccccc3CC(N)=O)n1)OC[C@H]1CN(C3CCNCC3)CCN21 [Compound B10R]
pIC50 (FAK kinase [2]): > 9.30

CC(C)Oc1cc2c(cc1Nc1ncc(Cl)c(Nc3ccccc3S(=O)(=O)C(C)C)n1)OC[C@@H]1CN(C3CCN(C)CC3)CCN21 [Compound C3S]
pIC50 (FAK kinase [3]; Table 3, read-out: FAK(method A and B) (IC50)): > 8.30

CNC(=O)c1ccccc1Nc1cc(Nc2cc3c(cc2OC)N2CCN(C4CCOCC4)C[C@H]2CO3)ncc1C(F)(F)F [Compound D1S]
AUC(0-t) at 24 h [1]: 11000 ng·h/mL | Cmax [1]: 2320 ng/mL | Tmax [1]: 1.67 h | half-life [1]: 2.63 h | pIC50 (FAK kinase [3]): > 9.30

CNC(=O)c1ccccc1Nc1cc(Nc2cc3c(cc2OC)N2CCN(C4COC4)C[C@H]2CO3)ncc1C(F)(F)F [Compound D3S]
pIC50 (FAK kinase [3]; [4]): > 9.00

CCOc1cc2c(cc1Nc1cc(Nc3ccccc3C(=O)NC)c(C(F)(F)F)cn1)OC[C@@H]1CN(C3CCN(C)CC3)CCN21 [Compound D5S]
pIC50 (FAK kinase [3]; [4]): > 9.00

CNC(=O)c1ccccc1Nc1cc(Nc2cc3c(cc2OC(C)C)N2CCN(C4CCN(C)CC4)C[C@H]2CO3)ncc1C(F)(F)F [Compound D6S]
AUC(0-t) at 24 h [1]: 675 ng·h/mL | Cmax [1]: 52.3 ng/mL | Tmax [1]: 6.67 h | half-life [1]: 5.74 h | pIC50 (FAK kinase [3]): > 8.52

COc1cc2c(cc1Nc1ncc(Cl)c(Nc3cccnc3N3CCCC3=O)n1)OC[C@H]1CNCCN21 [Compound E1R]
pIC50 (TNK1 kinase): > 9.30

COc1cc2c(cc1Nc1ncc(Cl)c(Nc3cccnc3N3CCCC3=O)n1)OC[C@H]1CN(C)CCN21 [Compound E2R]
AUC(0-t) at 24 h [1]: 332 ng·h/mL | Cmax [1]: 74.4 ng/mL | Tmax [1]: 1 h | half-life [1]: 2.07 h | pIC50 (TNK1 kinase): > 9.30

COc1cc2c(cc1Nc1ncc(Cl)c(Nc3cccnc3N3CCCC3=O)n1)OC[C@H]1CN(C3CCN(C)CC3)CCN21 [Compound E3R]
pIC50 (TNK1 kinase; Table 5, ATP 45 µM, read-out: TNK1 (IC50)): > 9.30

COc1cc2c(cc1Nc1ncc(Cl)c(Nc3cccnc3N3CCCC3=O)n1)OC[C@H]1CN(C3CCOCC3)CCN21 [Compound E4R]
AUC(0-t) at 24 h [1]: 83.9 ng·h/mL | Cmax [1]: 69 ng/mL | Tmax [1]: 0.5 h | half-life [1]: 0.99 h | pIC50 (TNK1 kinase): > 9.30

COc1cc2c(cc1Nc1ncc(Cl)c(Nc3cccnc3N3CCCC3=O)n1)OC[C@H]1CN(C(C)=O)CCN21 [Compound E5R]
AUC(0-t) at 24 h [1]: 1560 ng·h/mL | Cmax [1]: 500 ng/mL | Tmax [1]: 1 h | half-life [1]: 1.38 h | pIC50 (TNK1 kinase): > 9.30

CCC(=O)N1CCN2c3cc(OC)c(Nc4ncc(Cl)c(Nc5cccnc5N5CCCC5=O)n4)cc3OC[C@H]2C1 [Compound E6R]
AUC(0-t) at 24 h [1]: 581 ng·h/mL | Cmax [1]: 352 ng/mL | Tmax [1]: 0.5 h | half-life [1]: 1.05 h | pIC50 (TNK1 kinase): > 9.00

COc1cc2c(cc1Nc1ncc(Cl)c(Nc3cccnc3N3CCCC3=O)n1)OC[C@H]1CN(C(=O)C3CC3)CCN21 [Compound E7R]
AUC(0-t) at 24 h [1]: 473 ng·h/mL | Cmax [1]: 292 ng/mL | Tmax [1]: 0.5 h | half-life [1]: 1.08 h | pIC50 (TNK1 kinase): > 8.70

COc1cc2c(cc1Nc1ncc(Cl)c(Nc3cccnc3N3CCCC3=O)n1)OC[C@H]1CN(C3CN(C)C3)CCN21 [Compound E8R]
AUC(0-t) at 24 h [1]: 3170 ng·h/mL | Cmax [1]: 411 ng/mL | Tmax [1]: 2 h | half-life [1]: 3.37 h | pIC50 (TNK1 kinase): > 8.70

CCN1CCC(N2CCN3c4cc(OC)c(Nc5ncc(Cl)c(Nc6cccnc6N6CCCC6=O)n5)cc4OC[C@H]3C2)CC1 [Compound E9R]
AUC(0-t) at 24 h [1]: 1200 ng·h/mL | Cmax [1]: 71.6 ng/mL | Tmax [1]: 9.33 h | half-life [1]: 14.5 h | pIC50 (TNK1 kinase): > 9.00

COc1cc2c(cc1Nc1ncc(Cl)c(Nc3cccnc3N3CCCC3=O)n1)OC[C@H]1CN(C3CCN(C4CC4)CC3)CCN21 [Compound E10R]
AUC(0-t) at 24 h [1]: 2000 ng·h/mL | Cmax [1]: 133 ng/mL | Tmax [1]: 3.67 h | half-life [1]: 9.69 h | pIC50 (TNK1 kinase): > 9.30

COc1cc2c(cc1Nc1ncc(Cl)c(Nc3cccnc3N3CCCC3=O)n1)OC[C@H]1CN(C3CCN(C(C)=O)CC3)CCN21 [Compound E11R]
AUC(0-t) at 24 h [1]: 8110 ng·h/mL | Cmax [1]: 1090 ng/mL | Tmax [1]: 1.33 h | half-life [1]: 4.36 h | pIC50 (TNK1 kinase): > 9.00
